Experimental findings from patent publication US10414775B2 (Merck Sharp & Dohme Corp., priority 2016, dated 2019) are described below.

For the data set, the target named is T1, Human CYP8B1 (Homo sapiens, UniProt Q9UNU6).
T1 construct: tissue Xenotech; host or cells: human liver microsomes
T1 sequence (Q9UNU6 1-501): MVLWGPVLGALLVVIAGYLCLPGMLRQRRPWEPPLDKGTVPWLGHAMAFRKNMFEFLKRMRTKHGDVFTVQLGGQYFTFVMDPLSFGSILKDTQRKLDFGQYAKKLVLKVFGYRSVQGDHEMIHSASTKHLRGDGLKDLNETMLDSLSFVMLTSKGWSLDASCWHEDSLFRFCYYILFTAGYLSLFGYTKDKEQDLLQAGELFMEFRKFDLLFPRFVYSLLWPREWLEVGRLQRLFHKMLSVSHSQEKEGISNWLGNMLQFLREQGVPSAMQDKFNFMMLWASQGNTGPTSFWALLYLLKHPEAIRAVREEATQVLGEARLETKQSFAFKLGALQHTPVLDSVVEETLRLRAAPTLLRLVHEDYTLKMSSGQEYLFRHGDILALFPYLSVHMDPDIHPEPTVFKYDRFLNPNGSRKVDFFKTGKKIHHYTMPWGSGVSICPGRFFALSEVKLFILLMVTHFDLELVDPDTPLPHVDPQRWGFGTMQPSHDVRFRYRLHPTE
In words: Human Cyp8B1 Liver Microsome Assay. The class given is biochemical. To be noted: human liver microsomes; substrate 7α-hydroxy-4-cholesten-3-one, NADPH; 30 min pre-incubation, 45 min reaction; RapidFire MS readout. Here is the method: Human Cyp8B1 Liver Microsome Assay To a 384 well polypropylene plate (Corning 3656), 250 nl of inhibitor in 100% DMSO (1.25% final DMSO concentration) was pre-plated using an Echo liquid handler (Labcyte Inc.). Human liver microsomes (Xenotech) were diluted in of 0.1 M phosphate buffer, pH 7.4, at a concentration of 65 μg/ml and 15 μL was added to the 384 well plate. The plates were incubated at ambient room temperature for 30 minutes. After pre-incubation with inhibitor, the reaction was initiated by adding 5 μl of substrate solution (4.0 μM 7α-hydroxy-4-cholesten-3-one(Toronto Research Chemicals), 2 mM of NADPH (Sigma), 0.1 M phosphate buffer (pH 7.4). The reaction was carried out for 45 minutes at ambient room temperature and was quenched by the addition of 50 μl of acetonitrile+0.1% vol/vol formic acid (FA)+300 nM 7α-hydroxy-4-cholesten-3-one-d7 (Toronto Research Chemicals). The plates were sealed and centrifuged at 3000 rpm for 5 minutes. Plates were loaded onto the Agilent RapidFire RF300 HTMS system, wherein samples were sipped for 600 ms, and the sip sensor detection signals the diversion of sample from the loop onto a C4 solid phase extraction (SPE) cartridge, where salts are washed off for 2500 ms with a mobile phase of water with 0.1% vol/vol FA at a flow rate of 1.5 ml/min. The column path is switched, and the sample is eluted off the cartridge and flowed into the mass spectrometer for 3000 ms with a mobile phase of acetonitrile and 0.1% vol/vol FA at a flow rate of 1.25 ml/min. The aspirator tip was washed separately with water and acetonitrile between sample aspirations (each for 600 ms) to minimize carryover contamination. Mass spectrometry was carried out using a Sciex API4000 triple quadrupole mass spectrometer (Applied Biosystems, Concord, ON, Canada) equipped with electrospray ionization (ESI) operated in the positive-ion mode. The product 7α, 12α-dihydroxy-4-cholesten-3-one and internal standard 7α-hydroxy-4-cholsten-3-one-d7 were detected using multiple reaction monitoring (MRM) with Q1/Q3 transitions at m/z 417.3 to 381.3 and m/z 408.3 to 390.3, respectively, with a dwell time of 100 ms and a collision energy of 24 V for each transition. The mass spectrometer used an ESI voltage of 5000 V and a source temperature of 650° C. Extracted ion chromatograms for each transition were integrated and processed using the RapidFire Integrator software. The data for each well were normalized by monitoring product conversion with the ratio of AUCproduct/(AUCinternal standard). The data was then fitted to a four parameter logistic fit using ActivityBase Software to calculate an IC50 of the inhibitor.
(In general: Microsomes from liver hold many membrane-bound enzymes, among them those of drug oxidation.)

pIC50: −log10 of the molar value. Where a name gives a salt, the structure may show the parent alone.

What is called pIC50 is the negative decadic logarithm of the IC50, by convention in mol/L. Read a high pIC50 as a low IC50. For `Cc1cc(N2CC[C@H](C(=O)N3CCn4c(nnc4C(F)(F)F)C3)[C@H](C)C2)c2ccc(Cl)cc2n1` [Example 19, 7-chloro-2-methyl-4-[(3S,4S)-3-methyl-4-{[3-(trifluoromethyl)-5,6-dihydro[1,2,4]tria-zolo[4,3-a]pyrazin-7(8H)-yl]carbonyl}piper-idin-1-yl]quinolinium trifluoroacetate], the pIC50 is 6.97.

In turn, `C[C@@H]1CN(c2c(Cl)cnc3cc(C(C)(F)F)ccc23)CC[C@@H]1C(=O)N1CCn2c(nnc2C(F)(F)F)C1` [Example 49, {(3S,4S)-1-[3-chloro-7-(1,1-difluoroethyl)quinolin-4-yl]-3-methylpiperidin-4-yl}[3-(trifluoromethyl)-5,6-dihydro[1,2,4]triazolo[4,3-a]pyrazin-7(8H)-yl]methanone] showed a pIC50 of 9.34.

In turn, `C[C@@H]1CN(c2ccnc3c2CCN(CC(F)(F)F)C3)CC[C@@H]1C(=O)N1CCn2c(nnc2C(F)(F)F)C1` [Example 63, ((3S,4S)-3-methyl-1-(7-(2,2,2-trifluoroethyl)-5,6,7,8-tetrahydro-1,7-naphthyridin-4-yl)piperidin-4-yl)(3-(trifluoromethyl)-5,6-dihydro-[1,2,4]triazolo[4,3-a]pyrazin-7(8H)-yl)methanone] had a pIC50 of 6.92.

Molecule `C[C@@H]1CN(c2c(Cl)cnc3cc(S(C)(=O)=O)ccc23)CC[C@@H]1C(=O)N1CCn2c(nnc2C(F)(F)F)C1` [Example 72, ((3S,4S)-1-(3-chloro-7-(methylsulfonyl)quinolin-4-yl)-3-methylpiperidin-4-yl)(3-(trifluoromethyl)-5,6-dihydro-[1,2,4]triazolo[4,3-a]pyrazin-7(8H)-yl)methanone] showed a pIC50 of 8.92.

As to `COc1ccc2c(N3CC[C@H](C(=O)N4CCn5c(nnc5C(F)(F)F)C4)[C@H](C)C3)ccnc2c1` [Example 23, [(3S,4S)-1-(7-methoxyquinolin-4-yl)-3-methylpiperidin-4-yl][3-(trifluoromethyl)-5,6-dihydro[1,2,4]tria-zolo[4,3-a]pyrazin-7(8H)-yl]methanone], the pIC50 was 6.63.

Take `CCNC(=O)c1ccc2c(N3CC[C@H](C(=O)N4CCn5c(nnc5C(F)(F)F)C4)[C@H](C)C3)c(Cl)cnc2c1` [Example 70, 3-chloro-N-ethyl-4-((3 S,4S)-3-methyl-4-(3-(trifluoromethyl)-5,6,7,8-tetrahydro-[1,2,4]triazolo[4,3-a]pyrazine-7-carbonyl)piperidin-1-yl)quinoline-7-carboxamide]: the pIC50 is 9.15.

Consider `C[C@@H]1CN(c2c(Cl)cnc3cc(C4CC4)ccc23)CC[C@@H]1C(=O)N1CCn2c(nnc2C(F)(F)F)C1` [Example 50, [(3S,4S)-1-(3-chloro-7-cyclopropyl-quinolin-4-yl)-3-methylpiperidin-4-yl][3-(trifluoromethyl)-5,6-dihydro[1,2,4]triazolo[4,3-a]pyrazin-7(8H) - yl]methanone], for which the pIC50 is 9.60.

Turning to `C[C@H](O)c1ccc2c(N3CC[C@H](C(=O)N4CCn5c(nnc5C(F)(F)F)C4)[C@H](C)C3)c(Cl)cnc2c1` (single isomer, unassigned) [Example 44a], the pIC50 was 9.47.

Consider `C[C@@H]1CN(c2c(Cl)cnc3cc(OCC4CC4)ccc23)CC[C@@H]1C(=O)N1CCn2c(nnc2C(F)(F)F)C1` [Example 51], for which the pIC50 was 9.66.

In turn, `CC(C)NC(=O)c1ccc2c(N3CC[C@H](C(=O)N4CCn5c(nnc5C(F)(F)F)C4)[C@H](C)C3)ccnc2c1` [Example 66, N-isopropyl-4-((3 S,4S)-3-methyl-4-(3-(trifluoromethyl)-5,6,7,8-tetrahydro-[1,2,4]triazolo[4,3-a]pyrazine-7-carbonyl)piperidin-1-yl)quinoline-7-carboxamide] showed a pIC50 of 8.35.

As for `C[C@@H]1CN(c2ccnc3cc(C(F)F)ccc23)CC[C@@H]1C(=O)N1CCn2c(nnc2C(F)(F)F)C1` [Example 58, ((3S,4S)-1-(7-(difluoromethyl)quinolin-4-yl)-3-methylpiperidin-4-yl)(3-(trifluoromethyl)-5,6-dihydro-[1,2,4]triazolo[4,3-a]pyrazin-7(8H)-yl)methanone], the pIC50 was 8.22.

Take `C[C@@H]1CN(c2c(C(N)=O)cnc3cc(OCC4CC4)ccc23)CC[C@@H]1C(=O)N1CCn2c(nnc2C(F)(F)F)C1` [Example 39, 7-(cyclopropylmethoxy)-4-[(3S,4S)-3-methyl-4-{[3-(trifluoromethyl)-5,6-dihydro[1,2,4]triazolo[4,3-a]pyrazin-7(8H)-yl]carbonyl}piperidin-1-yl]quinoline-3-carboxamide]: the pIC50 is 8.28.

On to `C[C@@H]1CN(c2ccnc3cc(C(=O)NC45CC(C4)C5)ccc23)CC[C@@H]1C(=O)N1CCn2c(nnc2C(F)(F)F)C1` [Example 68, N-(bicyclo[1.1.1]pentan-1-yl)-4-((3S,4S)-3-methyl-4-(3-(trifluoromethyl)-5,6,7,8-tetrahydro-[1,2,4]triazolo [4,3-a]pyrazine-7-carbonyl)piperidin-1-yl) quinoline-7-carboxamide], for which the pIC50 is 7.68.

The molecule `Cc1cnc2cc(C(C)(F)F)ccc2c1N1CC[C@H](C(=O)N2CCn3c(nnc3C(F)(F)F)C2)[C@H](C)C1` [Example 52, {(3S,4S)-1-[7-(1,1-difluoroethyl)-3-methylquinolin-4-yl]-3-methylpiperidin-4-yl}[3-(trifluoromethyl)-5,6-dihydro[1,2,4]triazolo[4,3-a]pyrazin-7(8H)-yl]methanone] had a pIC50 of 9.51.

For the molecule `C[C@@H]1CN(c2c(C(F)(F)F)cnc3ccccc23)CC[C@@H]1C(=O)N1CCn2c(nnc2C(F)(F)F)C1` [Example 5, ((3S,4S)-3-methyl-1-(3-(trifluoromethyl)quinolin-4-yl)piperidin-4-yl)(3-(trifluoromethyl)-5,6-dihydro-[1,2,4]triazolo[4,3-a]pyrazin-7(8H)-yl)methanone], the pIC50 was 9.00.

`C[C@@H]1CN(c2ccnc3c2CCN(C(=O)OC2(C)CC2)C3)CC[C@@H]1C(=O)N1CCn2c(nnc2C(F)(F)F)C1` [Example 64, 1-methylcyclopropyl 4-((3 S,4S)-3-methyl-4-(3-(trifluoromethyl)-5,6,7,8-tetrahydro-[1,2,4]triazolo[4,3-a]pyrazine-7-carbonyl)piperidin-1-yl)-5,6-dihydro-1,7-naphthyridine-7(8H)-carboxylate]: the pIC50 was 7.31.

With `C[C@@H]1CN(c2ccnc3cc(C(=O)NCC4CC4)ccc23)CC[C@@H]1C(=O)N1CCn2c(nnc2C(F)(F)F)C1` [Example 67, N-(cyclopropylmethyl)-4-((3 S,4S)-3-methyl-4-(3-(trifluoromethyl)-5,6,7,8-tetrahydro-[1,2,4]triazolo[4,3-a]pyrazine-7-carbonyl)piperidin-1-yl)quinoline-7-carboxamide], the negative logarithm of the IC50 (pIC50) is 7.63.

`C[C@H]1CN(c2ccnc3ccc(Cl)cc23)CC[C@H]1C(=O)N1CCn2c(nnc2C(F)(F)F)C1` (single isomer, unassigned) [Example 11b]: the pIC50 is 5.93.

With `C[C@@H]1CN(c2ccnc3cc(Cl)ccc23)CC[C@@H]1C(=O)N1CCn2c(nnc2C(F)(F)F)C1` [Example 21, [(3S,4S)-1-(7-chloroquinolin-4-yl)-3-methylpiperidin-4-yl][3-(trifluoromethyl)-5,6-dihydro[1,2,4]tria-zolo[4,3-a]pyrazin-7(8H)-yl]methanone], the pIC50 is 8.20.

Molecule `C[C@@H]1CN(c2ccnc3cc(S(C)(=O)=O)ccc23)CC[C@@H]1C(=O)N1CCn2c(nnc2C(F)(F)F)C1` [Example 71, ((3 S,4S)-3-methyl-1-(7-(methylsulfonyl)quinolin-4-yl)piperidin-4-yl)(3-(trifluoromethyl)-5,6-dihydro-[1,2,4]triazolo[4,3-a]pyrazin-7(8H)-yl)methanone] showed a pIC50 of 6.52.
